Data as given in publication PMC4985813, “Binding site elucidation and structure guided design of macrocyclic IL-17A antagonists” (Scientific Reports, 2016).
Where “and” joins values, the source holds several entries; their conditions need not be identical. Equal values may be shown once. Entries after “also recorded” stand apart in the source; their conditions may differ. Read-outs that look alike come from different tables or passages of the source.

Columns and labels:
IL-17F homodimer = target: T1, IL-17F homodimer (Homo sapiens, UniProt Q96PD4); assay: SPR selectivity binding, immobilized IL-17F; details: for binding to IL-17F (SPR): concentrations up to 13.3 μM
T1 construct: purchased R&D Systems, Minneapolis, MN
T1 sequence (Q96PD4 31-163): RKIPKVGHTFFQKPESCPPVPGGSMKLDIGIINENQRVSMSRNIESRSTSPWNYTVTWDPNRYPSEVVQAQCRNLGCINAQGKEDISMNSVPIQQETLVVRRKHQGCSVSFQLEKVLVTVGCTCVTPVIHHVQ
Method: (§1) The IL-17 SPR binding assay was run on a Biacore 3000 SPR instrument (GE Healthcare). Biotinylated Bap-tagged human IL-17A[23], was captured on a Biacore Streptavidin chip to achieve a protein density of 2500–3500 RUs on the surface. The SPR running buffer was 10 mM HEPES, pH 7.4, 150 mM NaCl, 0.01% P20 with 3% DMSO. Compound samples were injected at a flow rate of 50 μL/min for 180 s association and followed by running buffer for at least 600 s to detect dissociation. Compound concentrations were varied across a 2–3 fold dilution series. Each concentration was tested at least in duplicate. When compounds were tested in the presence of HAP, the running buffer contained 50 nM of HAP and all samples were prepared in the running buffer. Multiple blank injections were run before and after each compound series for references. The data were processed and analyzed with Scrubber 2.0 (BioLogical Software) and Biaeval software (GE Healthcare) to calculate the binding constants along with on- and off-rates.
(§2) Biotinylated BAP-tagged IL-17RA ECD[17] and chemically biotinylated IL-17F (R&D Systems, Minneapolis, MN) were separately immobilized on Biacore Streptavidin chips to permit selectivity testing of compounds. The binding experiments were carried out as described above.

IL-17RA = target: T2, IL-17RA (Homo sapiens, UniProt Q96F46); assay: SPR selectivity binding, immobilized IL-17RA ECD
T2 construct: Biotinylated BAP-tagged IL-17RA ECD[17]
Method: as §1, §2

[1] = system: IL-17A-stimulated human keratinocytes; assay: Primary human keratinocytes cell assay, IL-8 production stimulated by IL-17A and TNF-α; assay type: cell-based; details: for IC50: Homo sapiens, Keratinocyte
Method: (§3) Primary human keratinocytes were cultured in Epilife medium with EDGS (Life Technology, Cascade Biologics) following product instructions. 5 days after establishing the culture from frozen vials, cells were plated at 10,000/well (80 μL) in culture media in 384-well plates. 4 h after plating, 10 μL of 10× compound stocks were added. Final DMSO concentration was 1%. Immediately after compound addition, 10 μL of a mixture of recombinant human IL-17A (R&D System, Minneapolis, MN) (5 ng/mL final) and TNF-α (Sigma-Aldrich, St Louis, MO) (10 ng/mL final), or TNF-α alone (10 ng/mL) were added to the cells. Cell assay plates were incubated for 48 h at 37 °C in a tissue culture incubator. Culture supernatants were harvested for analysis of IL-8 production using kit K211ANB-2 (Meso Scale Discovery, Rockville, MD).

[2] = system: keratinocytes stimulated by TNF-α alone; assay: Primary human keratinocytes cell assay, baseline IL-8 production stimulated by TNF-α alone; assay type: cell-based; details: Keratinocyte, TNF-α 10 ng/mL alone
Method: as §3

human IL-17A = human IL-17A (Homo sapiens, UniProt Q16552); assay: SPR binding assay, immobilized IL-17A
Method: as §1, with “When compounds were tested in the presence of HAP, the running buffer contained 50 nM of HAP and all samples were prepared in the running buffer.” left out

[3] = target: T3, IL-17A/IL-17RA interaction (Homo sapiens, UniProt Q16552); assay: FRET assay of IL-17A/IL-17RA interaction; assay type: biochemical
T3 construct: purchased R&D Systems (IL-17RA-Fc only)
Method: Maximal FRET was observed when IL-17A was bound to IL-17RA and diminished FRET was observed when IL-17A was separated from IL-17RA. […] Compounds were tested using a half-log dilution series of 11 concentrations. The IL-17A was incubated with the Europium-Streptavidin to 1.5X final assay concentration for 1 h at room temperature. Compounds were prepared at 50X final concentration in 100% DMSO and 300 nL were added to a 384-well white assay plate (Greiner). 10 μL of the Europium labeled IL-17A was added to the compounds and incubated at room temperature for 1 h. […] The plates were covered and incubated at room temperature for 3 h. The FRET signal of the IL-17A/IL-17RA interaction was measured using an EnVision Multilabel plate reader (PerkinElmer). […] A four-parameter logistic nonlinear regression model using the percent inhibition at each concentration was used to calculate an IC50 for each compound.

[4] = target: T4, full-length recombinant IL-17A (Homo sapiens, UniProt Q16552); assay: Covalent labeling of IL-17A with sulfonyl fluoride probe (pull-down, protein mass analysis, peptide mapping); assay type: biochemical
T4 construct: made in house
Method: Human recombinant IL-17A expressed in E. coli (5 μM) was incubated with and without compound 4 (50 μM) for 20 h at 37 °C in Dulbecco’s phosphate-buffered saline solution. To analyze cytokine homodimer, 10 μL of each sample was subjected to LC-MS using an Acquity class H UPLC (Waters) interfaced to a Xevo G2–S Q-Tof mass spectrometer (Waters). Chromatography was performed on a 2.1 × 100 mm Acquity BEH 300 Å C4 column (1.7 μm silica) (Waters) at 40 °C using the following gradient: 5% B/1 min, 5–85% B/10 min at 0.4 mL/min. Solvents: A, 0.05% formic acid in water; B, 0.05% formic acid in acetonitrile. […]
100 μL of each reaction sample was treated with three volumes of acetone at −20 °C for 2 h, after which the mixture was centrifuged at 14,000 × g for 10 min. […] Each digest was next treated with 4.5 mM DTT for 15 min at 37 °C, and 8 μL of each digest was analyzed on an Agilent Model 1100 HPLC system interfaced with a LTQ Orbitrap XL mass spectrometer (Thermo). […]
0.5 μM full length IL-17A (R&D Systems) was pre-incubated with DMSO or 50 μM a control compound in PBS at room temperature for 30 min, after which 5 μM sulfonyl fluoride probe compound 4 was added to the protein mixture (final sample volume 50 μl) and incubated for 1 h. […] Eluates were separated on a 12% NuPAGE Bis-Tris gel, transferred to a PVDF membrane, and then analyzed by immunoblot (anti-IL17A antibody from R&D Systems).

T2 sequence (Q96F46 33-320 limits assumed): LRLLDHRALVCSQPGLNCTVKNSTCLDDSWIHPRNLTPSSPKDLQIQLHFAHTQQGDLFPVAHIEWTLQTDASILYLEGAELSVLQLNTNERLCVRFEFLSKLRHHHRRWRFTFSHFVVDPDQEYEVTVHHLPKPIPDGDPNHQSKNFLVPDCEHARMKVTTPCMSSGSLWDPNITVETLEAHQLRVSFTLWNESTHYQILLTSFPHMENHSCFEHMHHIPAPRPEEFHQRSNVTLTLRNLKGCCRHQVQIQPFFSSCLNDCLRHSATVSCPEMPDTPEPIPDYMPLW
T3 sequence (Q16552 24-155): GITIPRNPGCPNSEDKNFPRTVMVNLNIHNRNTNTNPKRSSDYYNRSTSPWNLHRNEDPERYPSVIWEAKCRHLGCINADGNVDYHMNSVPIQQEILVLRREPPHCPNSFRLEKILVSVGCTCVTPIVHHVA
Chain of human IL-17A (Q16552 24-155): as above
T4 sequence (Q16552 24-155): as above

CN(C)C(=O)CC1(CC(=O)NCCc2ccc(NC(=O)[C@H](Cc3ccccc3F)NC(=O)c3ccnn3C)cc2)CCCC1 [Compound 1]
binding to IL-17F homodimer (SPR) (IL-17F homodimer; concentrations up to 40 μM): no measurable binding; also recorded: did not show any measurable binding | binding to IL-17RA (SPR) (IL-17RA; concentrations up to 40 μM): no measurable binding; also recorded: did not show measurable binding | modulation of IL-8 production in IL-17A-stimulated human keratinocytes ([1]; in the presence of TNF-α): insufficient to modulate

CNC(=O)[C@H]1Cc2ccc(cc2)NC(=O)[C@@H](NC(=O)c2ccnn2C)Cc2cc(ccc2Cl)Oc2ccc(cc2)C2(CCCC2)CC(=O)N1 [Compound 2]
IC50 [2]: > 30000 nM | binding to IL-17F (SPR) (IL-17F homodimer): did not show measurable binding | binding to IL-17RA (SPR) (IL-17RA; concentrations up to 13.3 μM): did not show measurable binding | Kd (human IL-17A; read-out: IL-17A SPR KD): 199 nM | Kd (human IL-17A; read-out: SPR KD): < 200 nM | IC50 [3]: < 35 nM and 34 nM | IC50 ([1]; IL-17A 5 ng/mL and TNF-α 10 ng/mL, 48 h, read-out: Keratinocyte IC50 (IL-8)): 537 nM | IC50 ([1]; read-out: IC50, IL-17A-stimulated production of IL-8 in keratinocytes): < 540 nM

CNC(=O)[C@H]1Cc2ccc(cc2)NC(=O)C(NC(=O)c2ccnn2C)Cc2cc(ccc2Cl)-c2cccc(c2)CCC(=O)N1 (some centres unmarked) [Compound 3]
IC50 [2]: > 30000 nM | binding to IL-17F (SPR) (IL-17F homodimer): no measurable binding; also recorded: did not show measurable binding | binding to IL-17RA (SPR) (IL-17RA; concentrations up to 13.3 μM): no measurable binding; also recorded: did not show measurable binding

C#CCNC(=O)[C@@H](Cc1ccc(NC(=O)[C@H](Cc2ccccc2F)NC(=O)c2ccnn2C)cc1)NC(=O)CC1(CC(=O)Nc2cccc(S(=O)(=O)F)c2)CCCC1 [Compound 4]
covalent labeling of IL-17A ([4]; in the absence of HAP): covalently labeled | principal site of modification of IL-17A ([4]; peptide mapping): Tyr85 | IC50 [3]: 200 nM
